Legend:
Experiment in all cases: Inhibition of receptor tyrosine kinase activity at molecular level (ELISA, Poly(Glu,Tyr)4:1 substrate phosphorylation)
Format in all cases: biochemical
FGFR1 = FGFR1 (Homo sapiens, UniProt P11362); conditions: for 10 nM inhibition ratio FGFR1: 10 nM compound, average of two independent experiments; for inhibition ratio FGFR1 (100 nM): 100 nM compound
Protocol: (§1) Enzyme reaction substrate Poly(Glu, Tyr)4:1 was diluted with potassium-free PBS (10 mM sodium phosphate buffer, 150 mM NaCl, pH 7.2-7.4) to 20 μg/mL. […] The reaction was conducted under 37° C. for 12-16 hours. After the liquid was removed from the wells, the plate was washed three times with 200 μL/well of T-PBS (PBS containing 0.1% Tween-20), each for 5 minutes. The enzyme plate was dried in 37° C. dryer for 1-2 hours.
(§2) 50 μL ATP solution diluted with buffer (50 mM HEPES pH 7.4, 50 mM MgCl2, 0.5 mM MnCl2, 0.2 mM Na3VO4, 1 mM DTT) to a final concentration of 5 μM was added into each well. The compound was diluted with DMSO to a suitable concentration (1 μL/well) or the well contained the corresponding concentration of DMSO (negative control well) Then various kinase recombinant proteins diluted with 49 μL of reaction buffer was added to initiate the reaction. Each experiment required duplicate enzyme-free control well. The reaction was carried out for 1 hour on a 37° C. Shaker (100 rpm). The plate was washed three times with T-PBS. A dilution of the primary antibody PY99 was added (100 μL/well), and the reaction was conducted in a shaker at 37° C. for 0.5 hr. The plate was washed three times with T-PBS. A dilution of the horseradish peroxidase-labeled goat anti-mouse IgG secondary antibody was added (100 μL/well), and the reaction was conducted in a shaker at 37° C. for 0.5 hour. Plate was washed with T-PBS for three times. 2 mg/mL OPD coloration solution (diluted with 0.1 M citric acid-sodium citrate buffer containing 0.03% H2O2 (pH=5.4)) was added (100 μL/well), reacted for 1-10 minutes at 25° C. in dark. The reaction was quenched with 2M H2SO4 (50 μL/well), and read at 490 nm using a tunable microplate reader SPECTRA MAX 190.
(§3) The inhibition ratio of the sample was determined by the following formula: […]
(§4) The IC50 values were obtained via four-parameter regression analysis using the software supplied with the microplate reader.

KDR = KDR (Homo sapiens, UniProt P35968); conditions: for 10 nM inhibition ratio KDR: 10 nM compound, average of two independent experiments
Protocol: as §1, §2, §3, §4

RET = RET (Homo sapiens, UniProt P07949); conditions: for 10 nM inhibition ratio RET: 10 nM compound, average of two independent experiments
Protocol: as §1, §2, §3, §4

Sequence of FGFR1 (P11362 22-822): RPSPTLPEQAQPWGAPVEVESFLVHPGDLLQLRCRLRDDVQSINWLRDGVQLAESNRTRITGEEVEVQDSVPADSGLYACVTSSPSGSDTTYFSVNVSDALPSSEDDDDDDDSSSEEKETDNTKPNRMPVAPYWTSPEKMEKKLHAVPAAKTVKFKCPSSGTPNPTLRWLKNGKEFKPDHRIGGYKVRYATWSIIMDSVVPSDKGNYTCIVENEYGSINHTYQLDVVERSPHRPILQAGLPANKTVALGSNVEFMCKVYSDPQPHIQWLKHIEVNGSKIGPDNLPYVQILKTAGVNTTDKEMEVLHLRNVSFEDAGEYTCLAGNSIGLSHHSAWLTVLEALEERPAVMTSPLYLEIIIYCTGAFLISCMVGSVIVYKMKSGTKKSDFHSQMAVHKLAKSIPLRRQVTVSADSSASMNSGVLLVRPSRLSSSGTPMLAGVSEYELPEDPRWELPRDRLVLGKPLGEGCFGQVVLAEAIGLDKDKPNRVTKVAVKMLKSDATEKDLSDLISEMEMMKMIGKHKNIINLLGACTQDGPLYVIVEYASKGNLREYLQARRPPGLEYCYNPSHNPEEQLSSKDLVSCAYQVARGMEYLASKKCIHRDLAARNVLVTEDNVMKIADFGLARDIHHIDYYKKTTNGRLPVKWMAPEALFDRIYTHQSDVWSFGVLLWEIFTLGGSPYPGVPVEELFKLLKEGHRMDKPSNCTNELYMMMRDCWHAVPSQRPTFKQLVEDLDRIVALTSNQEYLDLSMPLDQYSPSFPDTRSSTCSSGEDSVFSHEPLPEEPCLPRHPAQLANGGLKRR
Sequence of RET (P07949 29-1114): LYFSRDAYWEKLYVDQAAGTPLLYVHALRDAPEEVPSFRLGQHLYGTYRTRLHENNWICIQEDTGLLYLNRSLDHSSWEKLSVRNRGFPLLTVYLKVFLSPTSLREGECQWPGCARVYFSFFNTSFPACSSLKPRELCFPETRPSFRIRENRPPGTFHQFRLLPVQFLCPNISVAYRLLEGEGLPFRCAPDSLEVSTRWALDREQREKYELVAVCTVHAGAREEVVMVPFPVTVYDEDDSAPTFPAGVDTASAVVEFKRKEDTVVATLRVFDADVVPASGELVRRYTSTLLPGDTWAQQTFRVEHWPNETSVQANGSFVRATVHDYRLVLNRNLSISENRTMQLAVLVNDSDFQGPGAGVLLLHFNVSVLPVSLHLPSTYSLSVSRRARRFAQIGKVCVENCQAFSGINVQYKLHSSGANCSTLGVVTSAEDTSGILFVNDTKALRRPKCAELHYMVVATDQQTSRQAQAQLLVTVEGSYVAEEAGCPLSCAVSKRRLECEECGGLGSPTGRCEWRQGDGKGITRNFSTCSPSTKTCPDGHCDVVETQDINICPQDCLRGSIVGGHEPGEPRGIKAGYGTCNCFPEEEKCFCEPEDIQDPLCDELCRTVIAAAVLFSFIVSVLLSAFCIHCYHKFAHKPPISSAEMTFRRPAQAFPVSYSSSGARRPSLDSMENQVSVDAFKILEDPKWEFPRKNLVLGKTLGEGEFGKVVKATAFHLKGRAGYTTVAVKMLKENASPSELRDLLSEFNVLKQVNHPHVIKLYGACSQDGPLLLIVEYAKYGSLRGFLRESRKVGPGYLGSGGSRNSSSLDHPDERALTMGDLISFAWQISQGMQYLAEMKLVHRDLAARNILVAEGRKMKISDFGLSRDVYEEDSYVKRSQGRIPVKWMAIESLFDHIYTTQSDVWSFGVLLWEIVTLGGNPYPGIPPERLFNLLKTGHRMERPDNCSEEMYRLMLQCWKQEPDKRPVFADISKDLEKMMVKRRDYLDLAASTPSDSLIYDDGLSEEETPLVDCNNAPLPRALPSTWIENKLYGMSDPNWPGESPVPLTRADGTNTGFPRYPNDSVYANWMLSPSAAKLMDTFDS
Sequence of KDR (P35968 20-1356): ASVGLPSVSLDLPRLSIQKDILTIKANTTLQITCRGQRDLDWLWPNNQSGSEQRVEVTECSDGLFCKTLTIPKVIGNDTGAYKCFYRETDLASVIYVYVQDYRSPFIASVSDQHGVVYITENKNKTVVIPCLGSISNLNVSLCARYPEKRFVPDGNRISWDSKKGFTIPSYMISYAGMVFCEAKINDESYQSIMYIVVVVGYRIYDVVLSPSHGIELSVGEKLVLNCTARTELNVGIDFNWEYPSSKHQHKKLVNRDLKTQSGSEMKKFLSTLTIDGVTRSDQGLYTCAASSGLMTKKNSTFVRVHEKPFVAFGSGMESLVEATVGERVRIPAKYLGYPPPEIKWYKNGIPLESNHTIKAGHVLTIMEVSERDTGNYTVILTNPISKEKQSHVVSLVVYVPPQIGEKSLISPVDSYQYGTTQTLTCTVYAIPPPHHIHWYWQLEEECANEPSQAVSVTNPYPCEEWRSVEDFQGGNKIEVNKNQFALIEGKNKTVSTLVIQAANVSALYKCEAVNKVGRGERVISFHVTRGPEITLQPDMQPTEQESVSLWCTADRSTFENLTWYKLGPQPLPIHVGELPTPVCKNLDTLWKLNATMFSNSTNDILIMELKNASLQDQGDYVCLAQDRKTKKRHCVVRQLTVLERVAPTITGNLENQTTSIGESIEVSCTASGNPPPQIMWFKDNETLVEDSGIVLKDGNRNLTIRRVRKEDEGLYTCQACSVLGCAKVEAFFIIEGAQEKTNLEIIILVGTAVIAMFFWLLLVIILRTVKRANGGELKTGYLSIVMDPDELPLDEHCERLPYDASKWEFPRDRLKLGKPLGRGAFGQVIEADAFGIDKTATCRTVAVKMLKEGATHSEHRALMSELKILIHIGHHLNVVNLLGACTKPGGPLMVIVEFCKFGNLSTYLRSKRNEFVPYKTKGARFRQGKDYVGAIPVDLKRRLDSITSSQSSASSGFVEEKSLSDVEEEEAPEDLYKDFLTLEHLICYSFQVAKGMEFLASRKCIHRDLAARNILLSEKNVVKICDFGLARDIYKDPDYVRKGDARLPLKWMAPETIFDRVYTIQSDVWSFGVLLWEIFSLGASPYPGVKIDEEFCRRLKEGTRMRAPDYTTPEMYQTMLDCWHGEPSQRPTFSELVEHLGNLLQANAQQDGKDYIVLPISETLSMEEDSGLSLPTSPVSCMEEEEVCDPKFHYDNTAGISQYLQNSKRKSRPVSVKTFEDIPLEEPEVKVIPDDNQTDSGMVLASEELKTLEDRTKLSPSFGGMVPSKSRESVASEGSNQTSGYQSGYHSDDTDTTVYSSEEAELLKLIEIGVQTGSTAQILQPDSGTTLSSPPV

| Structure (SMILES) | 10 nM inhibition ratio FGFR1 (FGFR1) | 10 nM inhibition ratio KDR (KDR) | 10 nM inhibition ratio RET (RET) | inhibition ratio FGFR1 (100 nM) (FGFR1) | inhibition ratio KDR (100 nM) (KDR; 100 nM compound) | inhibition ratio RET (100 nM) (RET; 100 nM compound) |
| --- | --- | --- | --- | --- | --- | --- |
| CN(C)Cc1cnc(N)c(C#Cc2cc(C(=O)Nc3ccc(CN4CCN(C)CC4)c(C(F)(F)F)c3)ccc2Cl)c1 [Example 34] | 44.3 | 18.0 | 57.8 | – | – | – |
| Nc1ncccc1C#Cc1cc(C(=O)Nc2ccc(CN3CCNCC3)c(C(F)(F)F)c2)ccc1Cl [Example 51] | 67.9 | 38.2 | 79.4 | – | – | – |
| CNc1cnc(N)c(C#Cc2cc(C(=O)Nc3ccc(CN4CCN(C)CC4)c(C(F)(F)F)c3)ccc2Cl)c1 [Example 35] | 57.9 | 32.1 | 44.3 | – | – | – |
| Cc1ncccc1C#Cc1cc(C(=O)Nc2ccc(CN3CCN(C)CC3)c(C(F)(F)F)c2)ccc1Cl [HuFGFR143, reference compound] | – | 26.4 | 35.2 | 19.9 | – | – |
| CN1CCN(Cc2ccc(NC(=O)c3cc(Cl)cc(C#Cc4cccnc4N)c3)cc2C(F)(F)F)CC1 [Example 9] | 60.7 | 28.9 | 83.4 | – | – | – |
| C=CC(=O)Nc1cnc(N)c(C#Cc2cc(C(=O)Nc3ccc(CN4CCN(C)CC4)c(C(F)(F)F)c3)ccc2Cl)c1 [Example 39] | 53.4 | 36.4 | 88.0 | – | – | – |
| CN1CCC(Oc2ccc(NC(=O)c3ccc(Cl)c(C#Cc4cccnc4N)c3)cc2C(F)(F)F)CC1 [Example 41] | 53.4 | 35.4 | 77.3 | – | – | – |
| COCc1cnc(N)c(C#Cc2cc(C(=O)Nc3ccc(CN4CCN(C)CC4)c(C(F)(F)F)c3)ccc2Cl)c1 [Example 31] | 59.3 | 35.1 | 67.8 | – | – | – |
| CC(C)(C)OC(=O)N1CCN(Cc2ccc(NC(=O)c3ccc(Cl)c(C#Cc4cccnc4N)c3)cc2C(F)(F)F)CC1 [Example 50] | 56.3 | 27.8 | 55.1 | – | – | – |
| CN1CCN(Cc2ccc(NC(=O)c3ccc(Cl)c(C#Cc4cc(C5CC5)cnc4N)c3)cc2C(F)(F)F)CC1 [Example 19] | 59.3 | 13.2 | 69.4 | – | – | – |
| CN1CCN(Cc2ccc(NC(=O)c3ccc(Cl)c(C#Cc4cccnc4F)c3)cc2C(F)(F)F)CC1 [HuFGFR150, reference compound] | 35.1 | 32.3 | 30.3 | – | – | – |
| CN1CCN(Cc2ccc(NC(=O)c3ccc(Cl)c(C#Cc4cc(N(C)C)cnc4N)c3)cc2C(F)(F)F)CC1 [Example 36] | 49.9 | 12.1 | 56.3 | – | – | – |
| COc1ccc(C(=O)Nc2ccc(CN3CCN(C)CC3)c(C(F)(F)F)c2)cc1C#Cc1cccnc1N [Example 4] | 51.1 | 4.6 | 52.0 | – | – | – |
| CN1CCN(Cc2ccc(NC(=O)c3ccc(Cl)c(C#Cc4cc(CO)cnc4N)c3)cc2C(F)(F)F)CC1 [Example 30] | 55.2 | 5.8 | 77.8 | – | – | – |
| COCCOc1cnc(N)c(C#Cc2cc(C(=O)Nc3ccc(CN4CCN(C)CC4)c(C(F)(F)F)c3)ccc2Cl)c1 [Example 27] | 78.2 | 34.1 | 69.5 | – | – | – |

Continued, values first:

| 10 nM inhibition ratio FGFR1 (FGFR1) | 10 nM inhibition ratio KDR (KDR) | 10 nM inhibition ratio RET (RET) | inhibition ratio FGFR1 (100 nM) (FGFR1) | inhibition ratio KDR (100 nM) (KDR; 100 nM compound) | inhibition ratio RET (100 nM) (RET; 100 nM compound) | Structure (SMILES) |
| --- | --- | --- | --- | --- | --- | --- |
| 77.2 | 24.3 | 79.4 | – | – | – | CN1CCN(Cc2ccc(NC(=O)c3ccc(Cl)c(C#Cc4cc(OCCO)cnc4N)c3)cc2C(F)(F)F)CC1 [Example 26] |
| 64.1 | 23.5 | 66.1 | – | – | – | CN1CCN(Cc2ccc(NC(=O)c3ccc(Cl)c(C#Cc4cc(OC5CC5)cnc4N)c3)cc2C(F)(F)F)CC1 [Example 24] |
| 74.1 | 33.1 | 60.0 | – | – | – | CN1CCN(Cc2ccc(NC(=O)c3ccc(Cl)c(C#Cc4cc(OC(F)(F)F)cnc4N)c3)cc2C(F)(F)F)CC1 [Example 23] |
| 80.7 | 38.9 | 92.4 | – | – | – | CN1CCN(Cc2ccc(NC(=O)c3cc(F)cc(C#Cc4cccnc4N)c3)cc2C(F)(F)F)CC1 [Example 7] |
| 52.4 | 34.7 | 69.1 | – | – | – | Cc1ccc(C(=O)Nc2ccc(CN3CCN(C)CC3)c(C(F)(F)F)c2)cc1C#Cc1cccnc1N [Example 3] |
| 54.0 | 34.3 | 68.2 | – | – | – | CN1CCN(Cc2ccc(NC(=O)c3cc(C#N)cc(C#Cc4cccnc4N)c3)cc2C(F)(F)F)CC1 [Example 11] |
| 54.5 | 33.2 | 49.9 | – | – | – | CN1CCN(Cc2ccc(NC(=O)c3ccc(Cl)c(C#Cc4cc(OC5COC5)cnc4N)c3)cc2C(F)(F)F)CC1 [Example 25] |
| 51.8 | 44.1 | 65.3 | – | – | – | CN1CCN(Cc2ccc(NC(=O)c3cccc(C#Cc4cc(NC(=O)C5CC5)cnc4N)c3)cc2C(F)(F)F)CC1 [Example 38] |
| 44.9 | 14.3 | 55.2 | – | – | – | CN(C)CCOc1cnc(N)c(C#Cc2cc(C(=O)Nc3ccc(CN4CCN(C)CC4)c(C(F)(F)F)c3)ccc2Cl)c1 [Example 29] |
| 71.1 | 23.4 | 70.8 | – | – | – | CN1CCN(Cc2ccc(NC(=O)c3ccc(Cl)c(C#Cc4cc(C(F)(F)F)cnc4N)c3)cc2C(F)(F)F)CC1 [Example 20] |
| – | – | – | 21.1 | 23.9 | 29.7 | CN1CCN(Cc2ccc(NC(=O)c3ccc(Cl)c(C#Cc4ccc(N)nc4)c3)cc2C(F)(F)F)CC1 [HuFGFR151, reference compound] |
| 46.0 | 30.4 | 53.4 | – | – | – | CN1CCN(Cc2ccc(NC(=O)c3cc(C#Cc4cccnc4N)ccc3F)cc2C(F)(F)F)CC1 [Example 8] |
| 75.1 | 24.9 | 59.3 | – | – | – | COc1cnc(N)c(C#Cc2cc(C(=O)Nc3ccc(CN4CCN(C)CC4)c(C(F)(F)F)c3)ccc2Cl)c1 [Example 22] |
| 75.1 | 24.0 | 73.2 | – | – | – | Cc1cc(C#Cc2cccnc2N)cc(C(=O)Nc2ccc(CN3CCN(C)CC3)c(C(F)(F)F)c2)c1 [Example 12] |
| 77.1 | 33.2 | 69.5 | – | – | – | CN1CCN(Cc2ccc(NC(=O)c3ccc(Cl)c(C#Cc4c(F)ccnc4N)c3)cc2C(F)(F)F)CC1 [Example 49] |
| 45.1 | 15.2 | 40.1 | – | – | – | CN1CCN(Cc2ccc(NC(=O)c3ccc(C#N)c(C#Cc4cccnc4N)c3)cc2C(F)(F)F)CC1 [Example 5] |
| 33.2 | 39.5 | 16.4 | – | – | – | CNc1cncc(C#Cc2cc(C(=O)Nc3ccc(CN4CCN(C)CC4)c(C(F)(F)F)c3)ccc2C)c1 [Example A34, reference compound] |
| 70.5 | 25.2 | 71.8 | – | – | – | CN1CCN(Cc2ccc(NC(=O)c3ccc(Cl)c(C#Cc4cc(F)cnc4N)c3)cc2C(F)(F)F)CC1 [Example 16] |
| 59.9 | 15.4 | 61.2 | – | – | – | COc1ccc(C#Cc2cccnc2N)cc1C(=O)Nc1ccc(CN2CCN(C)CC2)c(C(F)(F)F)c1 [Example 15] |
| 65.5 | 20.3 | 58.2 | – | – | – | Cc1cnc(N)c(C#Cc2cc(C(=O)Nc3ccc(CN4CCN(C)CC4)c(C(F)(F)F)c3)ccc2Cl)c1 [Example 18] |
| – | 18.2 | 21.7 | 22.4 | – | – | COc1ncccc1C#Cc1cc(C(=O)Nc2ccc(CN3CCN(C)CC3)c(C(F)(F)F)c2)ccc1Cl [HuFGFR148, reference compound] |
